{"source": "patent US20240294545A1", "about": "(CSPC Zhongqi Pharmaceutical Technology (Shijiazhuang) Co., …, priority 2020, published 2024)", "key": {"[1]": {"system": "subcutaneous xenograft tumor of human non-small cell lung cancer cell line NCI-H441", "experiment": "NCI-H441 subcutaneous xenograft, combined with irinotecan liposome injection", "format": "in vivo, NU/NU mice", "protocol": "6 Efficacy Test of the Compounds of the Present Disclosure Combined with Irinotecan Liposome Injection on Inhibiting the Growth of Subcutaneous Xenograft Tumor of Human Non-Small Cell Lung Cancer Cell Line NCI-H441\n6.1 Experimental Animals: NU/NU Mice, SPF, Female, 20 to 30 g.\nIrinotecan liposome injection (HE072), 43 mg:10 mL, milky white liquid, batch No. B37191202, provided by Preparation Research Institute 2 from CSPC Zhongqi Pharmaceutical Technology (Shijiazhuang) Co., Ltd., diluted to an appropriate concentration with 5% glucose injection while testing.\nNCI-H441 cells, provided by Nanjing Kebai Biotechnology Co., Ltd.; 1640 culture medium (gibco Company):fetal bovine serum (Lanzhou Bailing)=90%:10%, 37° C., 5% CO2.\nNU/NU nude mice were subcutaneously inoculated with NCI-H441 human non-small cell lung cancer cells. When the mean tumor volume reached 170 to 172 mm^3 (15 days after inoculation), the animals were evenly divided into groups according to the tumor volume (d0), with 6 mice in each group. 2.5 mg/kg of HE072 was administered intraperitoneally once a week for 2 times. Vehicle control, 25 mg/kg of A-193, 25 mg/kg of A-182, and 25 mg/kg of AZD1390 were administered intragastrically once a day, from Monday to Thursday every week except Friday to Sunday, for 2 weeks (8 times). The tumor volume was measured twice a week, the body weight of mouse was weighed every day, and the data were recorded. The tumor volume (TV) was calculated according to the formula: TV=½×a×b2, wherein a and b represent the long and short diameters of tumor, respectively. Tumor growth inhibitory rate TGI (%)=[1−(Ti−T0)/(Vi−V0)]×100, wherein Ti represents the mean tumor volume of a given treatment group on a certain day; TO represents the mean tumor volume of this treatment group at the beginning of administration; Vi represents the mean tumor volume of the vehicle control group on a certain day (the same day as that in Ti); V0 represents the mean tumor volume of the vehicle control group at the beginning of administration. At the end of the test (d17), the animals were sacrificed, the tumors were stripped and weighed, and the tumor weight inhibitory rates were calculated."}, "[2]": {"system": "subcutaneous xenograft tumor of human glioblastoma LN-18", "experiment": "LN-18 subcutaneous xenograft, combined with radiotherapy", "format": "in vivo, NOG mice", "details": "compound 20 mg/kg intragastric qd × 5 + IR 1 Gy, day 17", "protocol": "9 Efficacy Test of the Compounds of the Present Disclosure Combined with Radiotherapy on Inhibiting the Growth of Subcutaneous Xenograft Tumor of Human Glioblastoma LN-18\n9.1 Experimental Animals: NOG Mice, SPF, Female, 18 to 22 g.\nLN-18 tumor cells, DMEM medium:fetal bovine serum=95%:5%, accompanied by adding 100 U/mL penicillin and 100 μg/mL streptomycin, 37° C., 5% CO2.\nLN18 tumor cells resuspended in serum-free DMEM medium were inoculated subcutaneously in the right costal region of experimental animals at 1.5*10^7/0.15 mL, and the animals were grouped when the tumor grew to 100 to 150 mm^3. Radiotherapy was performed 1 h after administration of compounds.\nTumor volume: The tumor volume was measured twice a week with a vernier caliper, and the long diameter and short diameter of tumor were measured. The tumor volume was calculated as follows: tumor volume (TV)=0.5×long diameter×short diameter^2. Tumor growth inhibitory rate (TGI %) was calculated according to the tumor volume. TVXn represents the mean tumor volume on day n of the treatment group, TVX0 represents the mean tumor volume on day 0 of the treatment group, TVMn represents the mean tumor volume on day n of the control group, and TVM0 represents the mean tumor volume on day 0 of the control group."}, "ATM": {"biological_target": "ATM (Homo sapiens (Human), UniProt Q13315)", "sequence (Q13315 whole entry)": "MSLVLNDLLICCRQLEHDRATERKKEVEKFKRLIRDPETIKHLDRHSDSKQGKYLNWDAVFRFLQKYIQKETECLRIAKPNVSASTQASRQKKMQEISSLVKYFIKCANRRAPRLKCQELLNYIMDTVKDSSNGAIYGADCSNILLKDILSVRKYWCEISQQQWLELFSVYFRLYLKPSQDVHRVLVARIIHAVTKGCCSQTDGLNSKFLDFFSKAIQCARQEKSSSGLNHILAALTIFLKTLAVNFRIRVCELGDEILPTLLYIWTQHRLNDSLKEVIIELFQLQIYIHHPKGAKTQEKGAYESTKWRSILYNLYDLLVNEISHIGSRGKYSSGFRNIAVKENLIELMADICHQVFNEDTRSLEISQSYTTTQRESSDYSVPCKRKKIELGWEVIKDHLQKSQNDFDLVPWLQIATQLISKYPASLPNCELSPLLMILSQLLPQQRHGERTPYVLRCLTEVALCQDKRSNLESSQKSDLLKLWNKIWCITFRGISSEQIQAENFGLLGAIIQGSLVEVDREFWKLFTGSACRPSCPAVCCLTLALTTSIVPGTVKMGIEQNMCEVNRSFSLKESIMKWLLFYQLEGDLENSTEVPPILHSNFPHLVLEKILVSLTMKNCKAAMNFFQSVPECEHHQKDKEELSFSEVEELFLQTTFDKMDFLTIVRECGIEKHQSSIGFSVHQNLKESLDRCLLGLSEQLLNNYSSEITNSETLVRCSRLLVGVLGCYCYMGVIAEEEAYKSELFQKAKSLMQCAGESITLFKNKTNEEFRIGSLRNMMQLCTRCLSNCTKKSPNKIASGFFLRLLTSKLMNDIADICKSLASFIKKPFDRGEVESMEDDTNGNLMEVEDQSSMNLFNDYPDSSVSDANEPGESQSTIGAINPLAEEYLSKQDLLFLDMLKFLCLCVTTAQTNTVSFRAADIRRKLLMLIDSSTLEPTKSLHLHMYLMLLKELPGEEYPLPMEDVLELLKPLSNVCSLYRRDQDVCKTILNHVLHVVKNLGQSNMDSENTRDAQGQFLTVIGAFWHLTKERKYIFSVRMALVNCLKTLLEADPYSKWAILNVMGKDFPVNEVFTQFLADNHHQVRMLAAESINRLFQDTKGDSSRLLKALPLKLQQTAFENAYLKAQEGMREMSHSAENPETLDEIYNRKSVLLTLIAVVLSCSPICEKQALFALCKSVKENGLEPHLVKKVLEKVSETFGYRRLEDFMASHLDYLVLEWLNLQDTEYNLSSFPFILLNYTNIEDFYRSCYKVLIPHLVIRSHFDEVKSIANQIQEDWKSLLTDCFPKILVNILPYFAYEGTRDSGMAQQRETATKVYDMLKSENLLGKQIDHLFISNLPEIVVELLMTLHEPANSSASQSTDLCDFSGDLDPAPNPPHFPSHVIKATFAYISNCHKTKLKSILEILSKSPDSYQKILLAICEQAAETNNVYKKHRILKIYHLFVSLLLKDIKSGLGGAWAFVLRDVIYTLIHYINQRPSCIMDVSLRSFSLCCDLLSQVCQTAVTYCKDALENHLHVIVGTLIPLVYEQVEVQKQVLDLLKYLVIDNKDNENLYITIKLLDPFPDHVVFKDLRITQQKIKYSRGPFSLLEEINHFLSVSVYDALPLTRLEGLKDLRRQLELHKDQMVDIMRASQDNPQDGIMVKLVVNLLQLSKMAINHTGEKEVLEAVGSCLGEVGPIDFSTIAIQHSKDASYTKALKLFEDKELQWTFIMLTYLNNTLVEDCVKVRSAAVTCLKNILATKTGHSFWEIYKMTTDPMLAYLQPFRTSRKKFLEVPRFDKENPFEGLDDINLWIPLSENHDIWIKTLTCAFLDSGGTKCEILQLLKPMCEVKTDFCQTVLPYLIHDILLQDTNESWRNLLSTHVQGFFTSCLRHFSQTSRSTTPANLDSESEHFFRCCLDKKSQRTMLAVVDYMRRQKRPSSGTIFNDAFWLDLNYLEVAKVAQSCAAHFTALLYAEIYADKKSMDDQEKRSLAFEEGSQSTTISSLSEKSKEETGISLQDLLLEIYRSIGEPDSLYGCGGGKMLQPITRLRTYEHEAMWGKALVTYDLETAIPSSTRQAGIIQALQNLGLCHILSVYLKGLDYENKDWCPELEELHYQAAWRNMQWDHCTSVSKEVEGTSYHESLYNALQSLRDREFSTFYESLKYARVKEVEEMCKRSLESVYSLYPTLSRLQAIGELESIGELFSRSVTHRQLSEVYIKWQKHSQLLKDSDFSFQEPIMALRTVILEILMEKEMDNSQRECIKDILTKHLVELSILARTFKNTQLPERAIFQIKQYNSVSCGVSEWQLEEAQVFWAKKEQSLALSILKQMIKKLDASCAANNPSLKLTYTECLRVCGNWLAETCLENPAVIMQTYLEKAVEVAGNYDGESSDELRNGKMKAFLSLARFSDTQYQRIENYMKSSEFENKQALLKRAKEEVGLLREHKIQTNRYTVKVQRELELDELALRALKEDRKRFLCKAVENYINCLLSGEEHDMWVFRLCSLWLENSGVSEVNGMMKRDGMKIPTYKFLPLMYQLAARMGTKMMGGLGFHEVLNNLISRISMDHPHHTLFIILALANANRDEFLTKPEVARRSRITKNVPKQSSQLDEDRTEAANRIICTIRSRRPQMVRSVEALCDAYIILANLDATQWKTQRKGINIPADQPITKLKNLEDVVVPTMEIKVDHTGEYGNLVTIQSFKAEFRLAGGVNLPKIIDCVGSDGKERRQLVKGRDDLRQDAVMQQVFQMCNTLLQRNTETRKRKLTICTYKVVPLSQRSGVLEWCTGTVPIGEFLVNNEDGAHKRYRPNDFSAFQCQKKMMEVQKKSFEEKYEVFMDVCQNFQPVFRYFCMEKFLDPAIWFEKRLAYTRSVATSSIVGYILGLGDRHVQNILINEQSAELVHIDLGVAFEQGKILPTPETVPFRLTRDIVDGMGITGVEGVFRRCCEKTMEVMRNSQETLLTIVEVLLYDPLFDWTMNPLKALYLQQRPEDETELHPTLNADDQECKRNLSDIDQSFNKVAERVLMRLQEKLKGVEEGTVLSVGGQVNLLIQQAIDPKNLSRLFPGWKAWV", "experiment": "Caliper mobility shift assay for ATM", "format": "biochemical", "details": "read-out: IC50 of inhibitory activity on ATM kinase", "protocol": "1.2 Determination of the Inhibitory Activities of Compounds on ATM: Caliper Mobility Shift Assay for ATM\nTo a 96-well plate, 98 μL of DMSO and 2 μL of the 10 mM stock solution were added and mixed evenly so that the concentration of the solution was 200 μM.\nBased on the inhibitory rates of the compound at different concentrations, IC50 was calculated according to the formula: Y=Bottom+(Top−Bottom)/(1+(IC50/X)^HillSlope)."}, "[3]": {"system": "intracranial murine glioma GL-261-Luc", "experiment": "Intracranial murine glioma GL-261-Luc model, combined with radiotherapy", "format": "in vivo, C57BL/6 mice", "protocol": "8 Efficacy Test of the Compounds of the Present Disclosure Combined with Radiotherapy in the Intracranial Murine Glioma GL-261-Luc Model\n8.1 Experimental Animals: C57BL/6 Mice, SPF, Female, 19 to 22 g.\nGL-261-Luc tumor cells, DMEM medium:fetal bovine serum=90%:10%, accompanied by adding […] L-Glu, 37° C., 5% CO2.\nFemale C57BL/6 mice were anesthetized with Shutai 50 (60 mg/mL) and thiazine (1.5 mg/mL). Buprenorphine (0.1 mg/kg) was injected subcutaneously 30 min before operation and 6 h after operation to relieve pain. The operation area was disinfected with 70% ethanol solution. A sagittal incision was made on the parietal-occipital bone of anesthetized mice with a sterile scalpel, after cleaning the exposed skull surface with 3% hydrogen peroxide solution, tumor cells were injected. After injection, the skull was cleaned with 3% hydrogen peroxide solution, dried with a sterile dry cotton swab, and the incision was sutured. The state of mice was examined continuously to ensure that mice fully recovered from anesthesia.\nThe inoculated mice were weighed and intraperitoneally injected with […] (150 mg/kg). After 10 min injection, the animals were anesthetized with a mixture of oxygen and isoflurane. When the animal was completely anesthetized, it was moved into the imaging room for bioluminescence detection. The bioluminescence signal of the whole animal was measured and recorded for the image.\nBioluminescence detection was performed on the second day after operation, and the tumor-bearing mice were randomly divided into groups according to the intensity of bioluminescence. The specific groups were as follows. The administration route was intragastric administration and then JR 1 h after administration.\nAfter grouping, bioluminescence detection was performed 1 to 2 times a week, according to the bioluminescence data, tumor growth inhibitory rate was calculated as follows: TGI (%)=[1−(Ti−T0)/(Vi−V0)]×100, wherein Ti represents the mean bioluminescence data of a given treatment group on a certain day; T0 represents the mean bioluminescence data of this treatment group at the beginning of administration; Vi represents the mean bioluminescence data of the vehicle control group on a certain day (the same day as that in Ti); V0 represents the mean bioluminescence data of the vehicle control group at the beginning of administration."}, "[4]": {"details": "compound 25 mg/kg intragastric + irinotecan liposome 2.5 mg/kg ip, day 17"}, "[5]": {"details": "compound 25 mg/kg intragastric + irinotecan liposome 2.5 mg/kg ip, end of test d17"}}, "note": "pIC50: −log10 of the molar value. Marks after values point to notes of the source that are not given here.", "data": [{"smiles": "C[C@@H]1COc2c(-c3ccc(OCCCN4CCCCC4)nc3)ccc3ncc4c(c23)n1c(=O)n4C", "note": "[Example A-182, (R)-2,10-dimethyl-7-(6-(3-(piperidin-1-yl)propoxy)pyridin-3-yl)-9,10-dihydro-8-oxa-2,4,10a-triazanaphtho[2,1,8-cde]azulen-1(2H)-one]", "values": [{"measurement": "inhibitory effect on tumor volume and tumor weight, in words", "setting": "[1]; combined with irinotecan liposome injection, compared with AZD1390", "result": "higher than those of AZD1390"}, {"measurement": "D 17 TGI", "setting": "[1]; [4]", "result": 75.1, "unit": "%"}, {"measurement": "D 17 TV (MEAN ± SD)", "setting": "[1]; [4]", "result": "278.5 ± 94.1***^## mm^3"}, {"measurement": "Tumor weight", "setting": "[1]; [5]", "result": "0.26 ± 0.07", "unit": "g"}, {"measurement": "Tumor weight inhibitory rate", "setting": "[1]; [5]", "result": 56.1, "unit": "%"}, {"measurement": "D 17 TGI", "setting": "[2]", "result": 85.5, "unit": "%"}, {"measurement": "D 17 TV (MEAN ± SD)", "setting": "[2]", "result": "271 ± 107***^# mm^3"}, {"measurement": "pIC50", "setting": "ATM", "result": 9.34}, {"measurement": "anti-tumor activity, in words", "setting": "[3]; combined with radiotherapy, compared with AZD1390", "result": "equivalent to that of AZD1390"}, {"measurement": "D17 BLI", "setting": "[3]; compound 10 mg/kg intragastric qd × 5 + IR 2 Gy, day 17", "result": "5.24*** LOG10"}, {"measurement": "D 17 TGI", "setting": "[3]; compound 10 mg/kg intragastric qd × 5 + IR 2 Gy, day 17, from bioluminescence", "result": 110.08, "unit": "%"}]}]}
